# Measured values reported in ChEMBL document CHEMBL1201862, “PubChem BioAssay data set” (2004).
# Activity calls are given as the source filed them.
# Key:
# [1] = HeLa cell cytotoxicity, dose response, cytotoxicity control for MgcRacGAP inhibitor project (AID 624300); assay type: functional
# [2] = molecular target: Arf-GAP with SH3 domain, ANK repeat and PH domain-containing protein 1 (Homo sapiens, UniProt Q9ULH1); assay type: functional;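 note: biochemical fluorescence polarization dose–response screen measuring inhibition of ASAP1; ASAP1 GAP domain stimulating GTP hydrolysis by truncated human ARF1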
# [3] = molecular target: T1, DNA repair protein RAD52 homolog (Homo sapiens, UniProt P43351); assay type: functional, biochemical
# T1 sequence (P43351 whole entry): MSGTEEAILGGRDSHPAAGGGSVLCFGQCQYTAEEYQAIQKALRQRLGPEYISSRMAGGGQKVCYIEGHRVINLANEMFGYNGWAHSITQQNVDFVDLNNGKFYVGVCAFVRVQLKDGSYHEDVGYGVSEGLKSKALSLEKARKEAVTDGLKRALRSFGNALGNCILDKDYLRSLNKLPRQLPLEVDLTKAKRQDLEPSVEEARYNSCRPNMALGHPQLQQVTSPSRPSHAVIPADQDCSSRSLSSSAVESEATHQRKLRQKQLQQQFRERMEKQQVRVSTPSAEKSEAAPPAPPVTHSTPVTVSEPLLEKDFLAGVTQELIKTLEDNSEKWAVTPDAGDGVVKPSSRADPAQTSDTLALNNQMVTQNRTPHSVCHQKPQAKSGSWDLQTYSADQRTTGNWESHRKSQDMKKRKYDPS
# [4] = molecular target: T2, Rac GTPase-activating protein 1 (Homo sapiens, UniProt Q9H0H5); experiment: MgcRacGAP GTPase-activating activity inhibitors, confirmation, biochemical, ADP Hunter fluorescence, primary and confirmatory (AID 624330); assay type: functional
# T2 sequence (Q9H0H5 whole entry): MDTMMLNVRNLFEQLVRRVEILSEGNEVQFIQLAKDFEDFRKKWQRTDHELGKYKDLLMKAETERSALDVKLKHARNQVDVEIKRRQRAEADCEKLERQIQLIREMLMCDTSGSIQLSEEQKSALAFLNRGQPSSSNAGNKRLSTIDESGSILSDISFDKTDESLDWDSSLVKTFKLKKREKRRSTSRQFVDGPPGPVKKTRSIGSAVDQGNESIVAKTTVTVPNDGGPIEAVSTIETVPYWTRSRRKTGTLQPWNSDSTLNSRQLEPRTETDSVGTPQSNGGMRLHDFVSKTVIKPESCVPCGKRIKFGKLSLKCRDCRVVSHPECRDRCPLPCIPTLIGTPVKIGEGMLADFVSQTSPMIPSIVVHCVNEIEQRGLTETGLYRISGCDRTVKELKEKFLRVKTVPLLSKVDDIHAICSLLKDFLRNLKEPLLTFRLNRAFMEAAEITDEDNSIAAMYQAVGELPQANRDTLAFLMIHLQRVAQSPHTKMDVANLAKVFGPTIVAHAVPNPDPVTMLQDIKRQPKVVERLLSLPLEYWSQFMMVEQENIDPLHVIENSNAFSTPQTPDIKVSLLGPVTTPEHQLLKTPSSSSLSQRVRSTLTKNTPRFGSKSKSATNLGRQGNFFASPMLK
# cells [5] = assay type: functional, cell-based
# [6] = molecular target: Nuclear receptor subfamily 0 group B member 1 (Homo sapiens, UniProt P51843); assay type: functional, cell-based;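 note: HEK293T cells transfected with SF-1 and DAX-1 plus StAR promoter luciferase reporter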
# [7] = molecular target: T3, High affinity choline transporter 1 (Homo sapiens, UniProt Q9GZV3); experiment: CHT inhibitors, dose response, cell-based, 10-point CRC, membrane potential dye (AID 588401); assay type: functional;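 note: membrane potential dye fluorescence of choline-evoked depolarization via CHT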
# T3 sequence (Q9GZV3 whole entry): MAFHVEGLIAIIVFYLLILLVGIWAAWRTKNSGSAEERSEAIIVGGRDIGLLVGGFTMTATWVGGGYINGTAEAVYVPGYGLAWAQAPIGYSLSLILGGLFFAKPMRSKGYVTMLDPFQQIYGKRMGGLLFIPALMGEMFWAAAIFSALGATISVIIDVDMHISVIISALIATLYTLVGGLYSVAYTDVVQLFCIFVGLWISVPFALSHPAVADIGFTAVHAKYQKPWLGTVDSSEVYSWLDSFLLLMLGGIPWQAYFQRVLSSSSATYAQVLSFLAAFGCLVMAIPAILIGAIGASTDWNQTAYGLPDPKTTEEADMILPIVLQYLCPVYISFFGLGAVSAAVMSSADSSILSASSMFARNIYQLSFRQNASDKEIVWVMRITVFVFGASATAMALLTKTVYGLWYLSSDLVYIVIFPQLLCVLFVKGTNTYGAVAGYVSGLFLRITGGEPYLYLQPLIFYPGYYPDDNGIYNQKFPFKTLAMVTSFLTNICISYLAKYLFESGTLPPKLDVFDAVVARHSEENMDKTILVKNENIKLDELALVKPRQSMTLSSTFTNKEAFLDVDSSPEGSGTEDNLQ
# cells [8] = assay type: functional, cell-based; settings: HEK-CNG
# [9] = Luminescence Cell-Based Dose Retest to Confirm Inhibitors of Cancer Stem Cells. [Related pubchem assays (depositor defined):AID2717, AID2721]; assay type: functional; settings: Homo sapiens
# [10] = molecular target: T3, High affinity choline transporter 1; experiment: CHT inhibitors, dose response, cell-based, 5-point CRC, membrane potential dye (AID 504840); assay type: functional
# Galanin receptor type 3 = molecular target: T4, Galanin receptor type 3 (Homo sapiens, UniProt O60755); experiment: Fluorescence-based cell-based primary high throughput dose response assay to identify antagonists of the Galanin Receptor 3 (GalR3).; assay type: functional
# T4 sequence (O60755 whole entry): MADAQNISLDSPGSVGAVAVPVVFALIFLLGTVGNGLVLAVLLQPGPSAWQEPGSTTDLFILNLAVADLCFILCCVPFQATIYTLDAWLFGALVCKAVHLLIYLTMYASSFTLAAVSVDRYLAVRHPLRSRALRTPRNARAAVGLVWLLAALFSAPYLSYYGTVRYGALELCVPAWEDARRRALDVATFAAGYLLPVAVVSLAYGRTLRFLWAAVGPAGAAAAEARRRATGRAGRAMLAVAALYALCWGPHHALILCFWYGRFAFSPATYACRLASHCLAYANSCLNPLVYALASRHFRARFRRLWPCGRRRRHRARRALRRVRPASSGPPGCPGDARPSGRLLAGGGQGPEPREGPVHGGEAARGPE
# [11] = HEK293T cell cytotoxicity, dose response, cytotoxicity control for HIV Vif inhibitor project, cherry-picks (AID 652208); assay type: functional, cell-based
# [12] = molecular target: ATP-dependent molecular chaperone HSP82 (Candida albicans (strain WO-1) (Yeast), UniProt C4YTQ8); experiment: loss of DOC-induced GRE-beta-galactosidase reporter signal, dose response, Hsp90 inhibitor project, S. cerevisiae, luminescence (AID 2400); assay type: functional, cell-based;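 note: beta-galactosidase luminescence from glucocorticoid response element reporter as proxy for Hsp90 function; inhibitor potency where signal loss means Hsp90 inhibition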
# [13] = molecular target: Serine/threonine-protein phosphatase (Candida dubliniensis (strain CD36 / CBS 7987 / NCPF 3949 / NRRLY-17841) (Yeast), UniProt B9W6M3); experiment: calcineurin pathway inhibitors in yeast reporter, dose response, S. cerevisiae, CDRE-lacZ, luminescence, secondary (AID 2388); assay type: functional, cell-based;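 note: yeast reporter cells carrying a calcineurin-responsive lacZ construct stimulated with calcium chloride; luminescent beta-galactosidase reporter signal in whole cells rather than isolated phosphatase activity; potency for inhibition where a drop in reporter signal means calcineurin blockade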
# [14] = NIH-3T3 fibroblast cytotoxicity, dose response, cytotoxicity control, cell-based, fluorescence, Alamar Blue, secondary assay (AID 2327); assay type: functional;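 note: NIH-3T3 mouse fibroblasts cultured with fluconazole at 8 µg/mL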
# Paired box protein Pax-8 = Paired box protein Pax-8 (Homo sapiens, UniProt Q06710); experiment: inhibitors of PAX8-driven TPO luciferase reporter, dose response, RMG-I cells, cherry-pick (AID 687027); assay type: functional, cell-based;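 note: luciferase reporter driven by Pax8 target thyroperoxidase promoter measured by SteadyGlo luminescence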
# [15] = C. albicans growth with fluconazole, confirmation, fluorescence, retest (AID 2467); assay type: functional, cell-based
# [16] = inhibitors of CMV-promoter luciferase reporter, dose response, counter-screen for Pax8 inhibitor project, cell-based, HEK293, luminescence, dry powder (AID 743020); assay type: functional
# [17] = HEK293T cytotoxicity, dose response, cytotoxicity control for miR-122 modulator project, cell-based, inhibitor set, cherry-pick, set 2 (AID 720697); assay type: functional
# [18] = HEK293T cytotoxicity, dose response, cytotoxicity control for miR-122 modulator project, cell-based, activator set, cherry-pick (AID 720690); assay type: functional;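 note: HEK293T human cells scored for general mammalian cytotoxicity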
# [19] = miR-122 activators in hepatoma reporter cells, dose response, cell-based, Huh7 psiCHECK-miR122, Renilla luciferase, cherry-picked (AID 651956); assay type: functional;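 note: huh7 hepatoma cells stably carrying a psiCHECK-2 miR-122 sensor plasmid; renilla luciferase signal reporting endogenous miR-122 activity after 48 h compound exposure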
# Streptococcus = experiment: Group A Streptococcus viability loss, dose response, counter-screen for streptokinase expression inhibitor project, luminescence, BacTiterGlo (AID 1915); assay type: functional, organism-based;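 note: potency for reduction of bacterial viability or growth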
# [20] = system: Streptococcus sp. 'group A'; experiment: growth inhibition of control SK(-) GAS strain, dose response, counter-screen for streptokinase expression inhibitor project, luminescence, kanamycin, BacTiterGlo, confirmation (AID 1900); assay type: functional, organism-based
# Albumin = Albumin (Bos taurus, UniProt P02769); experiment: Counterscreen for inhibitors of T-cell receptor (TCR)-CD3 interaction: Fluorescence-based biochemical high throughput dose response assay to identify inhibitors of T-cell receptor (TCR)-CD3 interaction using a TAMRA-labeled BSA probe.; assay type: functional
# [21] = human group III sPLA2 inhibitors, dose response, biochemical, QFRET, IC50 (AID 743457);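 note: green fluorescence rise as the enzyme cleaves BODIPY PC-A2 in liposomes; potency for inhibition of the enzyme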
# [22] = molecular target: 5-hydroxytryptamine receptor 2A (Mus musculus, UniProt P35363); assay type: functional, cell-based;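 note: CHO-K1 cells with tagged receptor and beta-arrestin; agonist potency measured as compound-induced activation of the receptor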
# [23] = molecular target: FAD-linked sulfhydryl oxidase ALR (Homo sapiens, UniProt P55789); experiment: inhibitors of human ALR sulfhydryl oxidase, dose response, biochemical, H2O2 detection, luminescence, cherry-pick (AID 493248)
# Mu-type opioid receptor = Mu-type opioid receptor (Homo sapiens, UniProt P35372); assay type: functional, cell-based;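 note: U2OS cells with beta-arrestin recruitment to OPRM1 by beta-gal complementation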
# [24] = LMP1-driven NF-kB reporter inhibition, dose response, cell-based, luciferase reporter, luminescence, dry powder, set 2 (AID 624376); assay type: functional
# [25] = T. cruzi growth inhibition in host cells, dose response, cell-based, plate reader, dry powder, set 2 (AID 652275); assay type: functional
# Plasmodium falciparum = experiment: growth inhibition of P. falciparum 3D7, dose response, 3D7 strain, red blood cells, SYBR Green, cherry-picked (AID 652047); assay type: functional
# [26] = molecular target: Botulinum neurotoxin type F (Clostridium botulinum, UniProt P30996); experiment: High-throughput multiplex microsphere dose response for inhibitors of toxin protease, specifically Botulinum neurotoxin light chain F protease, compounds from Cherry Pick 02.; assay type: functional; settings: read-out: EC50_MICROM
# HeLa = experiment: HeLa cell cytotoxicity, dose response, cytotoxicity control, ATP luminescence, cherry-pick samples (AID 687004); assay type: functional, cell-based; settings: Homo sapiens
# Protein Wnt-3a = Protein Wnt-3a (Mus musculus, UniProt P27467); experiment: SAR analysis of small molecule antagonists of Gli-SUFU in a Wnt3a luminescent reporter assay.; assay type: functional
# NS3 = NS3 (Hepatitis C virus, UniProt A3EZJ3); experiment: HCV NS3 helicase inhibitor potency, dose response, biochemical, fluorescence polarization, ChemBridge library (AID 743264)
# Chain of NS3 (A3EZJ3 whole entry): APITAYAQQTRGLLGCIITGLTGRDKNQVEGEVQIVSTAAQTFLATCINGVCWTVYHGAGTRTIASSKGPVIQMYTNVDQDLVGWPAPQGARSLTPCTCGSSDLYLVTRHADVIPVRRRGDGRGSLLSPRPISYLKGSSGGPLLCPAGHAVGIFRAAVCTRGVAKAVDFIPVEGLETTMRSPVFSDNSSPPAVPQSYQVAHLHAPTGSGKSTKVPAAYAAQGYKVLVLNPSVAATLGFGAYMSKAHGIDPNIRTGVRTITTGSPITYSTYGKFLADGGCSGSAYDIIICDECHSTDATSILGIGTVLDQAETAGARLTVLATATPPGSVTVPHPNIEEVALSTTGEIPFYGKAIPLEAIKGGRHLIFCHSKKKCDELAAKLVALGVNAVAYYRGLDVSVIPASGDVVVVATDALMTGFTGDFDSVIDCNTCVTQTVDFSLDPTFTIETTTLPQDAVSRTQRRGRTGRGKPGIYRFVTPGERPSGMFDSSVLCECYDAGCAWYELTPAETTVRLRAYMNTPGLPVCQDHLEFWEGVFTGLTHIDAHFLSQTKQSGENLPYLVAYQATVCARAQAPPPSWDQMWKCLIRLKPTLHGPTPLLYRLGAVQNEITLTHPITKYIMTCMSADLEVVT
# Chain of Protein Wnt-3a (P27467 whole entry): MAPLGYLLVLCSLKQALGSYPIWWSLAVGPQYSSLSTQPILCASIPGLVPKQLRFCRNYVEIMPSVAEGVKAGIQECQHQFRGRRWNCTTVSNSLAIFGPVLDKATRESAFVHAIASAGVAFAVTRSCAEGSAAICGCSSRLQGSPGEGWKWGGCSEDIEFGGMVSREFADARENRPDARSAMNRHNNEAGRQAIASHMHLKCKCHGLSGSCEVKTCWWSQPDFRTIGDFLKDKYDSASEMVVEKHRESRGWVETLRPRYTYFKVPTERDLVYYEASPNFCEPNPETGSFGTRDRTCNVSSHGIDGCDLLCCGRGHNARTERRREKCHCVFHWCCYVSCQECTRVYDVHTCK
# Chain of Nuclear receptor subfamily 0 group B member 1 (P51843 whole entry): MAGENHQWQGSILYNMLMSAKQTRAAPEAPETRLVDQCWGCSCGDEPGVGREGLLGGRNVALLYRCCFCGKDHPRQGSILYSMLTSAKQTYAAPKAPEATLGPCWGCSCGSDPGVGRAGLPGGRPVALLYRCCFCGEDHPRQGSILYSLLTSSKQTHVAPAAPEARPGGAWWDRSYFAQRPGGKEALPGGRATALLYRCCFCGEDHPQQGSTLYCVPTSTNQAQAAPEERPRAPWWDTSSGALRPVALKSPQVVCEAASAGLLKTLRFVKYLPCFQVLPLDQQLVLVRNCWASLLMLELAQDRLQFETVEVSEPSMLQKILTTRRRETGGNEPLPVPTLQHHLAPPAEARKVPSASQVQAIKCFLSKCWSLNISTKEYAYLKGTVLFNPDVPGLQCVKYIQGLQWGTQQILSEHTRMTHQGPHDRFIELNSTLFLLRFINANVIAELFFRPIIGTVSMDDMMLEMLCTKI
# Chain of Paired box protein Pax-8 (Q06710 whole entry): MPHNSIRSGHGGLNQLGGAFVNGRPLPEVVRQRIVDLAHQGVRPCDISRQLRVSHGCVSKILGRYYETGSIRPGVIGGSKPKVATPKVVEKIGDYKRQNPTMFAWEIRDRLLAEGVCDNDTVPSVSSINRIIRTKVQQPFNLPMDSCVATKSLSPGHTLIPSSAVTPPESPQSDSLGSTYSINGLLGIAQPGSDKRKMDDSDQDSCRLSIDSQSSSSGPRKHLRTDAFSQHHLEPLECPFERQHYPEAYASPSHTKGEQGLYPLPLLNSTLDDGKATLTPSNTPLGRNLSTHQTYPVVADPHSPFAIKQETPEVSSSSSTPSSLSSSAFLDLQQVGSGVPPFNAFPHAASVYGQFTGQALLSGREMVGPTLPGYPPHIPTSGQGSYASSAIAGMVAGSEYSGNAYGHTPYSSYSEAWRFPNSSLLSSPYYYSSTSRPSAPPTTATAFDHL
# Chain of Arf-GAP with SH3 domain, ANK repeat and PH domain-containing protein 1 (Q9ULH1 whole entry, the tested form may be a part): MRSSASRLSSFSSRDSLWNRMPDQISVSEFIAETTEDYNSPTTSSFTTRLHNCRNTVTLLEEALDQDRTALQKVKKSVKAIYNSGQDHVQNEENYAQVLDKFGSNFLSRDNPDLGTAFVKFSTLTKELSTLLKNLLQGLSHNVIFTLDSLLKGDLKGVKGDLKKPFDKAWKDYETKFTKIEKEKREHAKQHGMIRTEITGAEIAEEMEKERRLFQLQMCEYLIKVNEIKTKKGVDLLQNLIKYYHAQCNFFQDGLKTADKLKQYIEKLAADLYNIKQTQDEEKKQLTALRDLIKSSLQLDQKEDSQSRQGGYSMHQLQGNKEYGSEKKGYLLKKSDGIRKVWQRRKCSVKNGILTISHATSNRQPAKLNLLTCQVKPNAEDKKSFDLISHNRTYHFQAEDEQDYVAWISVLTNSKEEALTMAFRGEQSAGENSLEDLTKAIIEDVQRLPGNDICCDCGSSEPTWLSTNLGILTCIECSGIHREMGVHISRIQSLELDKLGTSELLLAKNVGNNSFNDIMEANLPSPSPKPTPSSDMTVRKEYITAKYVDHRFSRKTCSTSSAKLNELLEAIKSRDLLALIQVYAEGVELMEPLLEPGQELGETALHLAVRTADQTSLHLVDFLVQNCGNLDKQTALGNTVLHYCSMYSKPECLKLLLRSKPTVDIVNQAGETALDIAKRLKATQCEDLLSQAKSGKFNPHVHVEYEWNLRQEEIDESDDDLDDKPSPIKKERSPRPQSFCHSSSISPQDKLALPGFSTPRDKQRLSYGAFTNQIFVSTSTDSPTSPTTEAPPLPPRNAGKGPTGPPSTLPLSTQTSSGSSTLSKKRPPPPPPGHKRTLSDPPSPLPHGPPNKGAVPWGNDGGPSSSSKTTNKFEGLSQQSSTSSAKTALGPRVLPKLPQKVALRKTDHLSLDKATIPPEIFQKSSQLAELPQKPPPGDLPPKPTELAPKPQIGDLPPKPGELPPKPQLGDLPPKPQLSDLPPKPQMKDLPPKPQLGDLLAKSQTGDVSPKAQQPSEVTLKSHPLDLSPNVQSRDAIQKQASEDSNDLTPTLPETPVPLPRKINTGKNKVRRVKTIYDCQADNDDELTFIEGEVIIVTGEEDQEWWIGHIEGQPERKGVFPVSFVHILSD
# Chain of Mu-type opioid receptor (P35372 whole entry): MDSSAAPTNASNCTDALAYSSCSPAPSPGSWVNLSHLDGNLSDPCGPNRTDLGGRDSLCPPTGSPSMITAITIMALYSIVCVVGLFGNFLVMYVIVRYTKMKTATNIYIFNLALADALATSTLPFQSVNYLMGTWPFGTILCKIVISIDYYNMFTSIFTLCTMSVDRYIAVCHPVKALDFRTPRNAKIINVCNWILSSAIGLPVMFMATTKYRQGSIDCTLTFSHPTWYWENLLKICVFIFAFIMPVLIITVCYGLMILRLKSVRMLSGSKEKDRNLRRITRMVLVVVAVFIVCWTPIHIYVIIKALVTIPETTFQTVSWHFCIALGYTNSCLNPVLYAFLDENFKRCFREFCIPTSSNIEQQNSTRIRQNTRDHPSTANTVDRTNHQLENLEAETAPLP
# Chain of ATP-dependent molecular chaperone HSP82 (C4YTQ8 whole entry): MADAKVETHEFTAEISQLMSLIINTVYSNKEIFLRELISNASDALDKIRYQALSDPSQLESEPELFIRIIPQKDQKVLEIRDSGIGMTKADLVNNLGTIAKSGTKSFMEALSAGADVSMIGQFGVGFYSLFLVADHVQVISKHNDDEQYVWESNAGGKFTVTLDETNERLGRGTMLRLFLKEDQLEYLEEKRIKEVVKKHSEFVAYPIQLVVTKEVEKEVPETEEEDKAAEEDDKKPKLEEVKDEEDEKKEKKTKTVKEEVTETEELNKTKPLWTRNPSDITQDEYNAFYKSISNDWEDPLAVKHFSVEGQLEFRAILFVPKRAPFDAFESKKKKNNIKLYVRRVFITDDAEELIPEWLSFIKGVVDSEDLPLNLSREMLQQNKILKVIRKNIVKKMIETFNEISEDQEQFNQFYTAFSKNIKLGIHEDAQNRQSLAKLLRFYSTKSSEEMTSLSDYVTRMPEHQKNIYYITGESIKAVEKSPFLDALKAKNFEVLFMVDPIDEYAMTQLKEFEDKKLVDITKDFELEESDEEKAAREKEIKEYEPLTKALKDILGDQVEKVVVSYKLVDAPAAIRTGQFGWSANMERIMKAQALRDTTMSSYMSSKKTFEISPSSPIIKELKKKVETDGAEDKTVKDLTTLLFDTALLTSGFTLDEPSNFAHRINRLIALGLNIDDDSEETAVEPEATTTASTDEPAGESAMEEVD
# Chain of Botulinum neurotoxin type F (P30996 1-436 limits assumed): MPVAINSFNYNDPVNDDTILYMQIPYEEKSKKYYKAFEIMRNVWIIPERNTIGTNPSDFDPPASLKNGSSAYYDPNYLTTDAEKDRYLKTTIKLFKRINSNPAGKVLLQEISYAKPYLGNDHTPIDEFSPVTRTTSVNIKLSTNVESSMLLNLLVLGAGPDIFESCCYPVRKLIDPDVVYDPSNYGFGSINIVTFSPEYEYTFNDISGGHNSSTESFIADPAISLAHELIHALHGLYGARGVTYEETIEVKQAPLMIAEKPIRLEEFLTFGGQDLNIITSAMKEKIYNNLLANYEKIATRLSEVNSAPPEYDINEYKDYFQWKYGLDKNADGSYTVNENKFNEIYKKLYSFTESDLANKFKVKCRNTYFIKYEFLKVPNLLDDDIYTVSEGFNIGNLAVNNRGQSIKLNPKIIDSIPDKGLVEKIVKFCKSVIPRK
# Chain of FAD-linked sulfhydryl oxidase ALR (P55789 whole entry): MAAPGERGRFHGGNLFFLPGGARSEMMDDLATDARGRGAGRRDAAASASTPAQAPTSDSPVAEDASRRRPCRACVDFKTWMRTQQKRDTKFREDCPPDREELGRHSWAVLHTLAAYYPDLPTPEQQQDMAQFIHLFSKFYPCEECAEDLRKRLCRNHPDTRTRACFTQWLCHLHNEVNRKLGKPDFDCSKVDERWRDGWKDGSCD
compound,measurement,setting,value
C[n+]1c(-c2ccc(C=NNC(=O)c3ccc(C(=O)NN=Cc4ccc(-c5cn6ccccc6[n+]5C)cc4)cc3)cc2)cn2ccccc21,CC50,[1],100 µM (active)
same,IC50,[2],22.3 µM (inactive)
same,AC50,[3],1.52 µM (active)
same,IC50,[4],66.4 µM (active)
Cc1ccn2c(Cc3ccccc3)c(-c3ccc(Br)cc3)nc2c1,IC50,cells [5],> 67.6 µM (inactive)
same,IC50,[6],> 67.6 µM (inactive)
C=CCNc1ncnc2c1ncn2C1OC(CO)C(O)C1O (configuration not stated),IC50,[7],6.31 µM (active)
same,EC50,cells [8],15.8 µM (inactive)
same,AC50,[9],3.33 µM (active)
same,IC50,[10],9.17 µM (active)
same,IC50,Galanin receptor type 3,> 0.369 µM (active)
same,AC50,[11],22.1 µM (active)
O=C(CCS(=O)(=O)c1ccc(Cl)cc1)Nc1nc(-c2ccncc2)cs1,EC50,[12],> 150 µM (inactive)
same,EC50,[13],> 180 µM (inactive)
same,EC50,[14],27.9 µM (active)
same,AC50,Paired box protein Pax-8,8.17 µM (active)
same,EC50,[15],5.04 µM (active)
same,AC50,[16],< 3.35 µM (active)
C[C@@H]1CCCCO[C@@H](CN(C)CC2CCCCC2)[C@@H](C)CN([C@@H](C)CO)C(=O)c2cc(NC(=O)Nc3cccc4ccccc34)ccc2O1,AC50,[17],8.05 µM (active)
same,AC50,[18],14.6 µM (active)
same,AC50,[19],10.4 µM (active)
C/C(=N\NC(=O)c1ccc(-c2ccccc2)cc1)C1C(=O)c2ccccc2C1=O,EC50,Streptococcus,4.32 µM (active)
same,EC50,[20],0.557 µM (active)
same,IC50,Albumin,> 94.1 µM (inactive)
O=C(/C=C/c1cccs1)NC(=S)NNC(=O)Cc1cccs1,EC50,Streptococcus,5.99 µM (active)
same,EC50,[20],2.01 µM (active)
same,IC50,[21],37 µM (inactive)
CNCCc1ccc(O)c(O)c1,EC50,[22],0.0874 µM (active)
same,AC50,[23],4.11 µM (active)
same,EC50,Mu-type opioid receptor,92.3 µM (inactive)
C[C@@H]1CN([C@@H](C)CO)C(=O)Cc2cc(NC(=O)Cc3ccccc3)ccc2O[C@H]1CN(C)Cc1ccc(C(F)(F)F)cc1,AbsAC35,[24],115.61 µM
CC(C)N1CC2(CN(Cc3ccccc3F)C2)Oc2c(NC(=O)c3ccncc3)cccc2C1=O,AC50,[25],0.747 µM (active)
Nc1nc(-c2ccccc2)c(-c2ccc([N+](=O)[O-])cc2)s1,AbsAC35,Plasmodium falciparum,103.54 µM
Cc1ccc(-c2nc3cc(C)c(Br)c(C)n3c2Cc2cccc(Cl)c2)cc1,EC50,[26],> 20 µM (inactive)
C/C=C/c1ccc2n(c1=O)C[C@H]1[C@H](CO)[C@@H](C(=O)N3CCc4ccccc4C3)N(C(=O)C3CC3)[C@@H]21.C/C=C\c1ccc2n(c1=O)C[C@H]1[C@H](CO)[C@@H](C(=O)N3CCc4ccccc4C3)N(C(=O)C3CC3)[C@@H]21,AC50,HeLa,> 52 µM (inactive)
COc1cc(OC)cc(C(=O)Nc2cc(N(C)C)ncn2)c1,IC50,Protein Wnt-3a,> 21.8 µM (inactive)
O=C1NC(=S)N(c2ccccc2F)C(=O)C1=Cc1ccco1,IC50,NS3,3.35 µM (inactive)
